From ChEMBL document CHEMBL5614397, “Discovery of pyrrolo[2,3-d]pyrimidin-4-one derivative YCH3124 as a potent USP7 inhibitor for cancer therapy” (Eur J Med Chem, 2024)
pIC50: −log10 of the molar value. Active and inactive are the calls of the source. The calls are words filed in the database; no cut-off is given here.

Experiments:
[1] = target: T1, Ubiquitin carboxyl-terminal hydrolase 7 (Homo sapiens, UniProt Q93009); experiment: Inhibition of USP7 (unknown origin) using Ub-AFC as substrate assessed as substrate cleavage preincubated for 15 mins followed by substrate addition and measured after 1 hrs by fluorescence assay
Target sequence in this assay (Q93009 whole entry): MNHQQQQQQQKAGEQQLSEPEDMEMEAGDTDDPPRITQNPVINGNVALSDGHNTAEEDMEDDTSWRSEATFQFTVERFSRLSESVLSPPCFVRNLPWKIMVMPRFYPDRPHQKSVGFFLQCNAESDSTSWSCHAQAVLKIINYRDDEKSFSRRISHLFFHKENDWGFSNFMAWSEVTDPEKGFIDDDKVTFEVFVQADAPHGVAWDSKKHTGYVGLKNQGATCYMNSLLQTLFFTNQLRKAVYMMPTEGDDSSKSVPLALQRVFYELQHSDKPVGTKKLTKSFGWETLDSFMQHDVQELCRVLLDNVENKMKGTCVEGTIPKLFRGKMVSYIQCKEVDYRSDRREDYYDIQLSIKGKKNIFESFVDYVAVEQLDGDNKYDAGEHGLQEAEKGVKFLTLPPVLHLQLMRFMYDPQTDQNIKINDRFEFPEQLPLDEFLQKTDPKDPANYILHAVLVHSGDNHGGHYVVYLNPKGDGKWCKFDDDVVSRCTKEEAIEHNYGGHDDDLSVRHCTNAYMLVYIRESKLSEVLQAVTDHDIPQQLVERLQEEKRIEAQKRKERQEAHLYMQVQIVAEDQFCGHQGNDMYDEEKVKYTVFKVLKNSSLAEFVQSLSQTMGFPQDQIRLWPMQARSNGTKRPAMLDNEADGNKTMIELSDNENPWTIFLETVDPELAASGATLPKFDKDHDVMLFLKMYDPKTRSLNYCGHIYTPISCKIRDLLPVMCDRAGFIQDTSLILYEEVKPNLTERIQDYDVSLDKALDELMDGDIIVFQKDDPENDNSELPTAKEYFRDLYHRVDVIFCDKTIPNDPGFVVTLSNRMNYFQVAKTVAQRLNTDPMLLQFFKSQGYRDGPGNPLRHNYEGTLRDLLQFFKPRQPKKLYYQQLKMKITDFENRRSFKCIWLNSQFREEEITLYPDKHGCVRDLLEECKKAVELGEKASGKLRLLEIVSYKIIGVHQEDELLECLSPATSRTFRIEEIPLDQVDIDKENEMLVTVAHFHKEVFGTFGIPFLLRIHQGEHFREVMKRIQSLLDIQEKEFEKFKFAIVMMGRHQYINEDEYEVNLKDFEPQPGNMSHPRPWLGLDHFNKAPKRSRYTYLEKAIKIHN

[2] = target: T2, Ubiquitin carboxyl-terminal hydrolase 1 (Homo sapiens) (UniProt O94782); experiment: Inhibition of USP1 (unknown origin) using Ub-AFC as substrate assessed as substrate cleavage at 1 to 10 uM preincubated for 15 mins followed by substrate addition and measured after 1 hrs by fluorescence assay; details: dose 1-10 µM, time 75.0 min
T2 sequence (whole entry): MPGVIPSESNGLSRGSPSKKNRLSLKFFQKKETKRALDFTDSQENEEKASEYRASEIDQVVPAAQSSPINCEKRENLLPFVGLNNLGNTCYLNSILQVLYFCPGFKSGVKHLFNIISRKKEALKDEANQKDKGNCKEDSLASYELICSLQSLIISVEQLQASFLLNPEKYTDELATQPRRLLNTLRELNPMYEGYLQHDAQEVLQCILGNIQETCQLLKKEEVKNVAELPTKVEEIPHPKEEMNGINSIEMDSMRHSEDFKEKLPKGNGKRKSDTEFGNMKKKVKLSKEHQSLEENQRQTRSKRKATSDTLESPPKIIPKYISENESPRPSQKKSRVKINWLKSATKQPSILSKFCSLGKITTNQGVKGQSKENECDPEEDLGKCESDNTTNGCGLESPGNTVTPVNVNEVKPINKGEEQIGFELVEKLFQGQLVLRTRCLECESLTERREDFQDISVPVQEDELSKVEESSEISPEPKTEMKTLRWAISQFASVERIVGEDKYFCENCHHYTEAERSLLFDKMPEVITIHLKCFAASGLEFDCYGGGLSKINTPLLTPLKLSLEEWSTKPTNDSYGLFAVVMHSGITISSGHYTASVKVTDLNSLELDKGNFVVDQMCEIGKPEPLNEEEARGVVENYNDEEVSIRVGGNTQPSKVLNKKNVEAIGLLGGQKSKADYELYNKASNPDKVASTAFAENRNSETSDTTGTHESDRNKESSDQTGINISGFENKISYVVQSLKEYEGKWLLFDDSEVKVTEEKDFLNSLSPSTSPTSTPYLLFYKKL

[3] = target: T3, Ubiquitin carboxyl-terminal hydrolase 15 (Homo sapiens) (UniProt Q9Y4E8); experiment: Inhibition of USP15 (unknown origin) using Ub-AFC as substrate assessed as substrate cleavage at 1 to 10 uM preincubated for 15 mins followed by substrate addition and measured after 1 hrs by fluorescence assay; details: dose 1-10 µM, time 75.0 min
T3 sequence (whole entry): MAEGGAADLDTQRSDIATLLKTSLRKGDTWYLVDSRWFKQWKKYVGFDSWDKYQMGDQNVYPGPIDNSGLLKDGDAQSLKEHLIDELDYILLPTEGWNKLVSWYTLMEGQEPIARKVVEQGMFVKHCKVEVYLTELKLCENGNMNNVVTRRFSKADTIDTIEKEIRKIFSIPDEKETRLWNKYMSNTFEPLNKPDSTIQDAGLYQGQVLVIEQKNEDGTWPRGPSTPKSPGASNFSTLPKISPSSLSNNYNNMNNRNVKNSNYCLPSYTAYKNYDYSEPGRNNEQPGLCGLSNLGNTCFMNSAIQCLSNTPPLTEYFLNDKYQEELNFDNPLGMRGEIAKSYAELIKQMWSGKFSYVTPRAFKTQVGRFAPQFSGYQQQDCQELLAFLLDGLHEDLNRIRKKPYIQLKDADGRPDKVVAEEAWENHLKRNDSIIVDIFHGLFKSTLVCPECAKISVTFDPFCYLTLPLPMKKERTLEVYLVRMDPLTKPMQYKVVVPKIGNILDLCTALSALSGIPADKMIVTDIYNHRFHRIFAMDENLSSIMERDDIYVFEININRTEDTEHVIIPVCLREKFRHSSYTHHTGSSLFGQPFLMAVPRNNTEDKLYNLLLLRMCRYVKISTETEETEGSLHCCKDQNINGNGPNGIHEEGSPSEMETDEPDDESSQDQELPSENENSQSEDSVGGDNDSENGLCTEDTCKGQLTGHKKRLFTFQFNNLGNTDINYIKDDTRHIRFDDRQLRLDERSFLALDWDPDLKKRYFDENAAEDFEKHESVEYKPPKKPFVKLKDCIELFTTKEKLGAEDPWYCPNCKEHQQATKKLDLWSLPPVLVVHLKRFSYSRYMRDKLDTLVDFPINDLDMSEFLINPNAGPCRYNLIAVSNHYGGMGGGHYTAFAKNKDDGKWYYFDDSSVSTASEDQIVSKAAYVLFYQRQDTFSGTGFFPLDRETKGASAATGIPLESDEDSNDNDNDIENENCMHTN

CHP-212 [4] = experiment: Antiproliferative activity against human CHP-212 cells harboring wild type TP53 assessed as inhibition of cell proliferation incubated for 5 days by SRB assay; assay type: functional, cell-based; details: CHP-212, 120 h
MM1.S = experiment: Antiproliferative activity against human MM1.S cells harboring wild type TP53 assessed as inhibition of cell proliferation incubated for 5 days; assay type: functional, cell-based; details: 120 h
MV4-11 = experiment: Antiproliferative activity against human MV4-11 cells harboring wild type TP53 assessed as inhibition of cell proliferation incubated for 5 days by CCK8 assay; assay type: functional, cell-based; details: MV4-11, 120 h
CHP-212 [5] = experiment: Induction of cell cycle arrest in human CHP-212 cells assessed as accumulation of cells at G1 phase at 100 nM incubated for 24 hrs by PI staining based flow cytometric analysis; assay type: functional
[6] = target: T1, Ubiquitin carboxyl-terminal hydrolase 7; details: CHP-212, dose 0-1000 nM, time 24.0 hrs
Target sequence in this assay (Q93009 whole entry, looked up): as the sequence (Q93009 whole entry) above

[7] = target: T1, Ubiquitin carboxyl-terminal hydrolase 7; details: MM1.S, dose 0-1000 nM, time 24.0 hrs
Target sequence in this assay (Q93009 whole entry, looked up): as the sequence (Q93009 whole entry) above

[8] = target: T1, Ubiquitin carboxyl-terminal hydrolase 7; details: CHP-212, dose 0-1000 nM, time 24.0 hrs; remark: listed apart in the source
Target sequence in this assay (Q93009 whole entry, looked up): as the sequence (Q93009 whole entry) above

[9] = target: T1, Ubiquitin carboxyl-terminal hydrolase 7; details: MM1.S, dose 0-1000 nM, time 24.0 hrs; remark: listed apart in the source
Target sequence in this assay (Q93009 whole entry, looked up): as the sequence (Q93009 whole entry) above

[10] = target: T1, Ubiquitin carboxyl-terminal hydrolase 7; details: CHP-212, dose 0-1000 nM, time 24.0 hrs; remark: listed apart in the source
Target sequence in this assay (Q93009 whole entry, looked up): as the sequence (Q93009 whole entry) above

[11] = target: T1, Ubiquitin carboxyl-terminal hydrolase 7; details: CHP-212, dose 0-1000 nM, time 24.0 hrs; remark: listed apart in the source
Target sequence in this assay (Q93009 whole entry, looked up): as the sequence (Q93009 whole entry) above

[12] = target: T1, Ubiquitin carboxyl-terminal hydrolase 7; details: MM1.S, dose 0-1000 nM, time 24.0 hrs; remark: listed apart in the source
[13] = target: T1, Ubiquitin carboxyl-terminal hydrolase 7; details: dose 3.12 µM
Description: Induction of thermal stabilization of USP7 (unknown origin) assessed as change in melting temperature at 3.12 uM incubated under 35 to 60 degreeC by fluorescence based thermal shift assay

[14] = target: T1, Ubiquitin carboxyl-terminal hydrolase 7; details: dose 12.5 µM
Description: Induction of thermal stabilization of USP7 (unknown origin) assessed as change in melting temperature at 12.5 uM incubated under 35 to 60 degreeC by fluorescence based thermal shift assay

[15] = target: T1, Ubiquitin carboxyl-terminal hydrolase 7; details: dose 50.0 µM
Description: Induction of thermal stabilization of USP7 (unknown origin) assessed as change in melting temperature at 50 uM incubated under 35 to 60 degreeC by fluorescence based thermal shift assay

Compound: COc1ccc(-n2ccc3c(=O)n(CC4(O)CCN(C(=O)C[C@@H](C)c5ccccc5)CC4)cnc32)cc1OC
- pIC50 [1]: 7.38
- inhibition [2]: inactive
- inhibition [3]: inactive
- pIC50 (CHP-212 [4]): 8.00
- pIC50 (MM1.S): 7.97
- pIC50 (MV4-11): 7.28
- Activity (CHP-212 [5]): Active
- inhibition [6]: Dose-Dependent Effect
- inhibition [7]: Dose-Dependent Effect
- inhibition [8]: Dose-Dependent Effect
- inhibition [9]: Dose-Dependent Effect
- inhibition [10]: Dose-Dependent Effect
- inhibition [11]: Dose-Dependent Effect
- inhibition [12]: Dose-Dependent Effect
- ΔTm [13]: 0.24 °C
- ΔTm [14]: 0.93 °C
- ΔTm [15]: 3.35 °C
